The record followed here is PubChem BioAssay AID1996.

≈ marks a conversion by molar mass, not a printed value. Some results are limits rather than exact numbers.

For the data set the following is noted: buffer; pH 7.4; 200.0 µM.
For the molecule `CC(C)(C)c1ccc(C(=O)NCCCNC(=O)c2cccnc2)cc1`, the solubility (kinetic) – broadly, the concentration staying in solution when a stock, usually in DMSO, is diluted into the medium – is 49.2 µg/mL (≈ 145 µM). The molecule `CN1CCN(C(=O)COc2ccc3ccccc3c2)CC1` had a kinetic solubility greater than 42.7 µg/mL. As for `O=C(O)c1ccc(Cl)c(NCc2ccncc2)c1`, the kinetic solubility was greater than 39.4 µg/mL. `C=CCn1c(C)c(C=C2C(=O)NC(=O)NC2=O)c2ccccc21` came in with a solubility (kinetic) greater than 46.4 µg/mL. Molecule `COc1cccc(CNC(=O)CCCC(=O)Nc2cccc([N+](=O)[O-])c2)c1` yielded a kinetic solubility greater than 55.7 µg/mL.

`C=CCNc1nc(N)c([N+](=O)[O-])c(NC2CCCCC2)n1`: the solubility (kinetic) stood at 0.7 µg/mL (≈ 2.39 µM). `CCOC(=O)c1cc2c(ccn2C)n1CC(=O)Nc1ccc(F)cc1` had a solubility (kinetic) of 3.1 µg/mL (≈ 9.03 µM). `Cc1ccc(S(=O)(=O)N2CCOCC2)cc1NC(=O)COC(=O)c1cncc(Br)c1` showed a solubility (kinetic) greater than 74.8 µg/mL. Molecule `COc1cc2c(cc1OC)CN(C(=O)c1cccc([N+](=O)[O-])c1)CC2` came in with a solubility (kinetic) of 36 µg/mL (≈ 105 µM).

`CC(C(=O)N1CCN(c2ccccc2F)CC1)c1ccc([N+](=O)[O-])cc1` (stereo not drawn) had a kinetic solubility of 38.8 µg/mL (≈ 109 µM). In the case of `Cc1ccc(NC(=O)NCc2ccccn2)c(C)c1`, the kinetic solubility is greater than 38.3 µg/mL. On to `COc1cc(CNCCO)ccc1OCCc1ccccc1`, for which the solubility (kinetic) is greater than 45.2 µg/mL.

Molecule `O=C(O)C1CCCCN1C(=O)c1cc2c(s1)CCCCC2` (stereo not drawn) came in with a kinetic solubility greater than 46.1 µg/mL. `CCc1ccc2nc(SCC(=O)NCC3CCCO3)c(C#N)cc2c1` (stereo not drawn) yielded a kinetic solubility of 1.9 µg/mL (≈ 5.35 µM). The molecule `O=C(Oc1c(-c2ccccc2)c(=O)n2c3c(cccc13)CC2)c1ccc(F)cc1` returned a kinetic solubility of less than 0.8 µg/mL.

The molecule `COc1ccc(CCNC(=O)C2C3CCC(C3)C2C(=O)O)cc1OC` (stereo not drawn) had a kinetic solubility of 43.7 µg/mL (≈ 126 µM). In the case of `Cc1ccnc(NC2(C(F)(F)F)N=C3SCCN3C2=O)c1` (stereo not drawn) it was greater than 47.4 µg/mL; in that of `COc1ccccc1OCC(=O)N1CCCCCCC1`, greater than 41.6 µg/mL; in that of `C/C(=N\NC(=O)c1cccnc1)c1ccccc1`, greater than 35.9 µg/mL. Regarding `Cc1ccc(S(C)(=O)=NC(=O)NC(=O)c2c(F)cccc2Cl)cc1` (stereo not drawn), the kinetic solubility worked out at 41.1 µg/mL (≈ 111 µM). Molecule `Cc1ccn2c(C=O)c(-c3ccc(F)cc3)c(C=O)c2c1` gave a kinetic solubility of 8.5 µg/mL (≈ 30.2 µM). `O=C(COC(=O)c1ccc(F)c(S(=O)(=O)N2CCOCC2)c1)NCc1ccc(F)cc1` yielded a solubility (kinetic) greater than 68.2 µg/mL. The molecule `CCOc1ccc(C(=O)NCC(=O)N2CCN(Cc3ccccc3)CC2)cc1` gave a kinetic solubility greater than 57.2 µg/mL. In the case of `O=C(CC1CCC1)NC(c1ccccc1)c1ccccc1` it was 6.5 µg/mL (≈ 23.3 µM); in that of `CCSC1=NCCN1C(=O)C(C)(C)Oc1ccc(Cl)cc1`, 9.8 µg/mL (≈ 30 µM). In turn, `CCCCCn1cnnc1SCC(=O)c1ccc2c(c1)OCO2` registered a kinetic solubility greater than 50 µg/mL. In turn, `CC(C)C(NCC(=O)Nc1ccccc1C(=O)NC1CC1)c1ccccc1` (stereo not drawn) had a solubility (kinetic) greater than 54.8 µg/mL.

`S=c1nc(C2CCCCC2)[nH]c2ccccc12` came in with a kinetic solubility of 0.5 µg/mL (≈ 2.05 µM). Consider `Cc1cccnc1NC(=O)Nc1cccc(Cl)c1`, for which the solubility (kinetic) was determined as 0.5 µg/mL (≈ 1.91 µM). For `CCC(OC(=O)C1=Cc2ccccc2OC1)C(=O)NCc1ccco1` (stereo not drawn), the kinetic solubility was 3.1 µg/mL (≈ 9.08 µM). Consider `Cc1cc(SCC#N)nc2ccccc12`, for which the solubility (kinetic) stood at 14.6 µg/mL (≈ 68.1 µM).

Take `COC(=O)CSc1ncc(S(=O)(=O)c2ccccc2)c(=O)[nH]1`: the solubility (kinetic) was greater than 51.1 µg/mL.

The molecule `O=C(Cc1cccc2ccccc12)Nc1cc(Cl)ccc1C(=O)O` gave a solubility (kinetic) greater than 51 µg/mL. In the case of `CC(C)[C@H](NC(=O)NCc1ccc(F)cc1)C(=O)O` it was greater than 40.2 µg/mL; in that of `CC(=O)c1ccc(OCC(O)CNCc2ccc3c(c2)OCO3)cc1` (stereo not drawn), 46.2 µg/mL (≈ 135 µM); in that of `Cc1ccsc1C(=O)Nc1ccccc1N1CCCC1`, 27.6 µg/mL (≈ 96.4 µM).

On to `O=C(CC1SC(=Nc2ccc(O)cc2)NC1=O)Nc1ccccc1` (stereo not drawn), for which the solubility (kinetic) amounted to 3.9 µg/mL (≈ 11.4 µM).

As for `CCCCOc1ccc(CSC(=N)N)cc1Cl.Cl`, the solubility (kinetic) was determined as 40.6 µg/mL. `N/C(CS(=O)(=O)c1ccccn1)=N\OC(=O)c1ccc(Cl)cc1` displayed a kinetic solubility of 19.1 µg/mL (≈ 54 µM). `O=C(O)c1ccc2c(c1)C(=O)N(c1ccccc1-c1ccccc1)C2=O` returned a solubility (kinetic) greater than 51.5 µg/mL. In the case of `O/N=C(\c1ccccc1)C(O)c1ccccc1` (stereo not drawn) it was greater than 34.1 µg/mL; in that of `OCCC1CN(CC2CC2)CCN1Cc1ccc(F)c(F)c1` (stereo not drawn), greater than 46.6 µg/mL. Consider `Cc1ccccc1NC(=O)NC1(C(=O)NCc2ccco2)CCCCC1`, for which the solubility (kinetic) is 8.5 µg/mL (≈ 23.9 µM). As for `COc1cccc2c1Oc1cc([N+](=O)[O-])cc(N(C)C(C)=O)c1C=C2`, the solubility (kinetic) was determined as 38.2 µg/mL (≈ 112 µM). In the case of `S=c1[nH]ccn1-c1cccc(Cl)c1Cl` it was greater than 36.8 µg/mL; in that of `O=S1(=O)CC(O)C(N(CCO)C(=S)Nc2ccccc2)C1` (stereo not drawn), 46.2 µg/mL (≈ 140 µM); in that of `Cl.Nc1nc2ccccc2n1C(=O)c1cccs1`, 2 µg/mL.

The molecule `CCC(C)(C)C(=O)Nc1cccc(Cl)c1C` registered a solubility (kinetic) greater than 36 µg/mL. On to `Cc1ccc(Oc2ccccc2NC(=O)C2=COCCO2)cc1`, for which the solubility (kinetic) amounted to 15.8 µg/mL (≈ 50.7 µM). In turn, `Cc1cc(C)c(S(=O)(=O)N2CCCCC2C(=O)O)c(C)c1` (stereo not drawn) returned a kinetic solubility greater than 46.7 µg/mL. With `O=C1CN(C(=O)c2ccccc2Cl)c2ccccc2N1`, the kinetic solubility was greater than 43 µg/mL. Turning to `Cc1cc(S(=O)(=O)N2CCOCC2)c(C)s1`, the kinetic solubility was greater than 39.2 µg/mL. Molecule `COCCCN=CC1=C(O)CC(c2ccccc2)CC1=O` (stereo not drawn) returned a kinetic solubility greater than 43.1 µg/mL.
